Laboratory results taken from US20250255850A1, “PHARMACEUTICAL COMPOSITIONS FOR TREATING NEUROLOGICAL CONDITIONS” (YISSUM RESEARCH DEVELOPMENT COMPANY OF THE HEBREW …, priority 2021, published 2025).
Converted amounts (≈) assume the structure as drawn.

Assays:
[1] = system: Mutant mice (CNTNAP2 and SHANK3 mouse models); assay: Novel object recognition test (NOR), 7-NI-treated mutant mice (Example 3); format: in vivo; settings: 7-NI IP 80 mg/kg/day for 7 days; mutant mice vs vehicle
Method: Behavioral testing started after 2 hours of treatment.
Novel object recognition (see, FIG. 4A): The novel object test for object recognition and memory takes place in a white open field arena (45×45 cm). The test involves a set of two unique novel objects, each about the size of a mouse, constructed from two different materials and non-uniform in shape. The test consisted of one 10-minute habituation session, a 5-minute familiarization session and a 5-minute recognition test, each video tracked (Noldus Ethovision). During the habituation, animals were allowed to freely explore an empty open field. At the end of the session, they were shifted from the open field to a place in a temporary clean holding cage for about 2 minutes. Two identical objects were placed on the median line at 10 cm from each wall and the animal was returned to the open field and allowed to explore the objects for 5 minutes before being returned to its home cage. Next day, one familiar object and one novel object were placed in the open field to the location where the identical objects were placed during the familiarization session and the mouse was allowed to explore them for a 5-minute recognition test. […] Familiarization and recognition sessions were scored for total time spent investigating each object, the number of object interactions and the latency of the first object interaction. […]

[2] = system: SH-SY5Y cells; assay: Confocal immunofluorescence of synaptophysin and 3-nitrotyrosine; format: cell-based, human; settings: pharmacological inhibition (7-NI) or knockdown of nNOS
Method: FIGS. 18A-C show immunofluorescence of synaptophysin and 3-nitrotyrosine in SH-SY5Y cells with inhibited nNOS activity. Cells (with or without treatment) were postfixed in 4% paraformaldehyde and then incubated with the primary rabbit monoclonal Syp (red), and either primary mouse monoclonal NeuN (green), or primary mouse monoclonal 3-Ntyr (green) antibodies, in another group of cells. Cells were incubated with their respective secondary antibodies, such as anti-mouse Alexa fluor488, or anti-rabbit Alexa fluor594, and then mounted with DAPI (Blue) in both groups of cells. The images were acquired using a confocal microscope. Groups of cells: SH-SY5Y, SH-SY5Y+7-NI, and SH-SY5Y+si-nNOS. Each group consisted of three independent sets of experiments and was run in triplicates. The initial cell seed number was ˜10^6/cm^2. FIG. 18A presents representative images of Syp and 3-Ntyr immunofluorescence. FIGS. 18B-C are bar graphs showing the relative fluorescent intensity of Syp (FIG. 18B) and N-Tyr (FIG. 18C) immunofluorescence in the 3 groups of cells. The data are presented as mean±SEM. One-way ANOVA followed by Fisher's LSD multiple comparison post hoc test was conducted. *P<0.05, **P<0.01, ***P<0.001. The scale bar is 100 μm. […]

[3] = Solubility of 7-NI in PBS; format: physicochemical; settings: phosphate buffer (PBS), aqueous buffer; 10 mM phosphate buffer pH 7.2
[4] = Solubility of 7-nitroindazole in PNL formulation of Table 1; format: physicochemical; settings: PNL formulation of Table 1, clear liquid
From the text: Table 1 below presents an exemplary PNL formulation according to some embodiments of the present invention.
The formulation can be prepared by mixing the components at room or elevated temperature to form a clear liquid which 7-nitroindazole is soluble in at about 20% w/v.

[5] = cited from earlier work
[6] = physchem; settings: organic solvent or mixture

SMILES: O=[N+]([O-])c1cccc2cn[nH]c12 [7-NI, 7-nitroindazole]
- preference for the novel object (NOR test) [1]: exhibited a significant preference for the novel object over the familiar object
- intensity of 3-Ntyr immunofluorescence [2]: significantly decreased the intensity
- intensity of Syp immunofluorescence [2]: significantly decreased the intensity
- solubility [3]: 0.14 mg/mL (≈ 0.858 mM)
- solubility in PNL formulation [4]: about 20 % w/v
- solubility in aqueous medium [5]: very low solubility
- solubility [6]: 32 mg/mL (≈ 196 mM)
